Test results: the supplement of paper PMC10307832

What was measured:
XMD8-85 + AZD7762 = compound: CN1CCN(CC1)C2=CC(=C(C=C2)NC3=NC=C4C(=N3)N(C5=CC=CC=C5C(=O)N4C)C)OC [XMD8-85] + NC(=O)Nc1cc(-c2cccc(F)c2)sc1C(=O)N[C@H]1CCCNC1 [AZD7762] (partner 0.2 µM); test: relative viability (nuclei count vs DMSO), 5 days (fraction); higher = more cells survive
Outline: (§1)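 Relative viability equals treated-well nuclei counts divided by vehicle-well nuclei counts. Counts came from 4× images of lung cancer cell lines grown in 1536-well plates for 5 days after pin-tool dosing on the day after seeding. Dosing used one drug alone or a fixed anchor-drug dose plus five library-drug doses (not always all listed) in √10 steps, and values are medians of duplicate plates.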

XMD8-85 + Vorinostat = compound: CN1CCN(CC1)C2=CC(=C(C=C2)NC3=NC=C4C(=N3)N(C5=CC=CC=C5C(=O)N4C)C)OC [XMD8-85] + O=C(CCCCCCC(=O)Nc1ccccc1)NO [Vorinostat] (partner 1 µM); test: as above
Outline: as §1

Cell Line | relative viability (XMD8-85 + AZD7762; first compound 0.08 µM) | relative viability (XMD8-85 + AZD7762; first compound 0.253 µM) | relative viability (XMD8-85 + AZD7762; first compound 0.8 µM) | relative viability (XMD8-85 + AZD7762; first compound 2.53 µM) | relative viability (XMD8-85 + AZD7762; first compound 8 µM) | relative viability (XMD8-85 + Vorinostat; first compound 0.08 µM) | relative viability (XMD8-85 + Vorinostat; first compound 0.253 µM) | relative viability (XMD8-85 + Vorinostat; first compound 0.8 µM) | relative viability (XMD8-85 + Vorinostat; first compound 2.53 µM) | relative viability (XMD8-85 + Vorinostat; first compound 8 µM)
NCI-H2170 | 0.784 | 0.937 | 0.92 | 0.918 | 0.759 | 0.914 | 0.8 | 0.792 | 0.877 | 0.715
HCC-15 | 1.16 | 1.06 | 1.13 | 1.12 | 1.02 | 0.896 | 0.819 | 0.806 | 0.792 | 0.586
NCI-H1651 | 0.46 | 0.431 | 0.47 | – | 0.433 | 0.602 | 0.562 | 0.5 | 0.546 | 0.449
LOU-NH91 | 0.678 | 0.763 | 0.806 | 0.835 | 0.59 | 0.896 | 0.904 | 0.91 | 1.04 | 0.641
NCI-H3122 | 1.05 | 1.08 | 1.05 | 1.06 | 1.14 | 1.02 | 1.17 | 1.03 | 1.08 | 1.38
NCI-H1395 | 0.382 | 0.393 | 0.395 | 0.418 | 0.35 | 0.556 | 0.668 | 0.739 | 0.887 | 0.406
NCI-H522 | 0.697 | 0.851 | 0.798 | 0.859 | 0.69 | 0.936 | 0.877 | 0.918 | 0.884 | 0.654
HCC-44 | 1.05 | 1.06 | 1 | 1.01 | 1.06 | 1.11 | 1.07 | 1.07 | 1.16 | 1.04
EPLC-272H | 0.209 | 0.16 | 0.362 | 0.229 | 0.273 | 0.414 | 0.401 | 0.335 | 0.296 | 0.243
PC-3 [JPC-3] | – | 0.782 | 0.82 | 0.712 | 0.411 | 0.963 | 0.875 | 0.68 | 0.912 | 0.465
SW 1573 | – | – | – | – | – | 0.643 | 0.739 | 1.11 | 0.596 | 0.46
NCI-H520 | – | – | – | – | – | 0.774 | 0.69 | – | 0.673 | 0.331
NCI-H1944 | 0.585 | 0.585 | 0.475 | 0.543 | 0.462 | 0.581 | – | 0.544 | 0.594 | 0.493
RERF-LC-KJ | 1.01 | 0.98 | 0.936 | 1.3 | 0.886 | 0.656 | 0.671 | 0.849 | 0.685 | 0.43
NCI-H2085 | 0.851 | 0.936 | 0.948 | 0.993 | 0.881 | 0.774 | 0.812 | 0.762 | 0.756 | 0.546
ChaGo-K-1 | 0.825 | 0.883 | 0.855 | 0.903 | 0.91 | 0.751 | 0.782 | 0.76 | 0.81 | 0.619
NCI-H1650 | – | – | – | – | – | 0.674 | 0.596 | 0.594 | 0.578 | 0.253
NCI-H661 | – | – | – | – | – | 0.835 | 0.788 | 0.809 | 0.743 | 0.588
NCI-H1648 | 0.483 | 0.572 | 0.587 | 0.717 | 0.726 | 0.522 | 0.474 | 0.265 | 0.244 | 0.292

Cell Line | relative viability (XMD8-85 + AZD7762; first compound 0.08 µM) | relative viability (XMD8-85 + AZD7762; first compound 0.253 µM) | relative viability (XMD8-85 + AZD7762; first compound 0.8 µM) | relative viability (XMD8-85 + AZD7762; first compound 2.53 µM) | relative viability (XMD8-85 + AZD7762; first compound 8 µM) | relative viability (XMD8-85 + Vorinostat; first compound 0.08 µM) | relative viability (XMD8-85 + Vorinostat; first compound 0.253 µM) | relative viability (XMD8-85 + Vorinostat; first compound 0.8 µM) | relative viability (XMD8-85 + Vorinostat; first compound 2.53 µM) | relative viability (XMD8-85 + Vorinostat; first compound 8 µM)
NCI-H2342 | 0.509 | 0.478 | 0.552 | 0.511 | 0.488 | 0.767 | 0.75 | 0.72 | 0.927 | 0.991
NCI-H2228 | – | – | – | – | – | 0.523 | 0.59 | 0.585 | 0.842 | 0.392
CAL-12T | 0.545 | 0.642 | 0.604 | – | 0.466 | 0.724 | 0.861 | – | 0.602 | 0.534
NCI-H441 | 1.21 | 1.01 | 1.12 | 1.11 | 0.562 | 0.72 | 0.666 | 0.859 | 1.02 | 0.698
NCI-H1437 | 1.11 | 1.13 | 1.15 | 1.09 | 0.886 | 0.93 | 0.879 | 0.94 | 0.751 | 0.482
LU99A | 0.328 | 0.504 | 0.407 | 0.378 | 0.341 | 0.363 | 0.518 | 0.506 | – | 0.428
NCI-H2347 | 0.686 | – | 0.732 | – | 0.704 | 0.603 | 0.564 | 0.59 | 0.533 | 0.504
EKVX | 0.685 | 0.742 | 0.67 | 0.729 | 0.646 | 0.631 | 0.8 | 0.851 | 0.91 | 0.626
H3255 | 0.979 | 0.868 | 0.894 | 0.925 | 0.554 | 0.875 | 0.761 | 0.867 | 0.902 | 0.536
NCI-H1793 | – | 0.408 | 0.483 | 0.344 | 0.413 | – | 0.665 | 0.63 | 0.916 | 0.497
ABC-1 | 0.904 | 0.805 | 0.799 | 0.876 | 0.859 | 1.2 | 1.27 | 1.01 | 0.969 | 0.533
NCI-H647 | 0.306 | 0.371 | 0.586 | 0.503 | 0.198 | 0.573 | 0.746 | 0.673 | 0.632 | 0.346
NCI-H727 | 0.768 | 0.619 | 0.465 | 0.576 | 0.42 | 1.09 | 1.23 | 1.17 | 1.24 | 0.984
COR-L23 | – | – | – | – | – | 0.413 | 0.486 | 0.558 | 0.516 | 0.236
NCI-H1915 | 0.735 | 0.71 | 0.683 | – | 0.725 | 0.556 | 0.546 | 0.485 | 0.5 | 0.476
NCI-H2126 | 1.06 | 1.12 | 0.962 | 1.05 | 1.06 | 0.772 | – | 0.795 | – | 0.553
NCI-H2087 | 1.42 | 1.25 | 1.39 | 1.23 | 0.96 | 0.668 | 0.967 | 0.806 | 0.708 | 0.456
LC-2-ad | 0.808 | 0.837 | 0.895 | 0.779 | 0.596 | 0.739 | – | 0.702 | 0.691 | 0.434
